In BindingDB's records for patent US12344612 (Genentech, 2025):

Molecular target: T1, Receptor-interacting serine/threonine-protein kinase 1 (Homo sapiens, UniProt Q13546)
T1 sequence (Q13546 whole entry): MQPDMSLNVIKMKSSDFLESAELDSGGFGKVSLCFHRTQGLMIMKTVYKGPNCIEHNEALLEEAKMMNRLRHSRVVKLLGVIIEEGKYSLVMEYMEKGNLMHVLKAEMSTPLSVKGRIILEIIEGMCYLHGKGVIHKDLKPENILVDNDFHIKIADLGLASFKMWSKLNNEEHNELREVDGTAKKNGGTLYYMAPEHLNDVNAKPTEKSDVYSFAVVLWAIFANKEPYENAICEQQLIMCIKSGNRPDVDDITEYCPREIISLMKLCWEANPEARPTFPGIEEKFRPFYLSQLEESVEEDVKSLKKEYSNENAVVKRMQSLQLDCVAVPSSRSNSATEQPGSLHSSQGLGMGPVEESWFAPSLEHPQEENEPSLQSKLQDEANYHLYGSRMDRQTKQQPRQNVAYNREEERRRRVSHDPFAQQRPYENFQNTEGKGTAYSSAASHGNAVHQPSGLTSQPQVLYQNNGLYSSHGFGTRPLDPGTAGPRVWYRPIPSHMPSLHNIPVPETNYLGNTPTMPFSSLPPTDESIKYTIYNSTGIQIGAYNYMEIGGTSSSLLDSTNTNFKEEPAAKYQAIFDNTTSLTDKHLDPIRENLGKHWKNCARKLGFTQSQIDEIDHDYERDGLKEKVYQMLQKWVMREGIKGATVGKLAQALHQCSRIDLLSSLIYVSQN
Test: Not found
Excerpt: Not found

How did the Ki turn out when `O=C(c1nc2n(n1)CC[C@H]2c1ccccc1)C1CC1` (single isomer, unassigned) [US12344612, Example 10] was run?
The Ki was 51 nM.
